Test results from patent US20080038809A1, “ISOLATED LECTIN POLYPEPTIDES CONSISTING OF TRUNCATED […] UDP-GalNAc:POLYPEPTIDE N- ACETYLGALACTOSAMINYLTRANSFERASES” (GLYCOZYM APS, priority 2002, published 2008).

Tests used:
GalNAc-T2 lectin domain = molecular target: T1, GalNAc-T2 lectin domain (Homo sapiens, UniProt Q10471); test: Inhibition of GalNAc-T2 lectin domain (T2ld) binding to GalNAc-MUC1 glycopeptide, ELISA
T1 construct: comprises amino acid residues 408-571 of GALNT2; made in house; host or cells: baculovirus (pAcGP67-A), virus made in Sf9, protein produced in High Five insect cells
T1 sequence (Q10471 408-571): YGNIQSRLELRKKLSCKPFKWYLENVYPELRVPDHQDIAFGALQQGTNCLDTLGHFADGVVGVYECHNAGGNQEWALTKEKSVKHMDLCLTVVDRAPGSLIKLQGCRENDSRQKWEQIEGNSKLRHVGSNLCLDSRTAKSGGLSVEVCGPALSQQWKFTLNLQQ
Procedure: (§1) Direct binding ELISA assay was developed as follows: Polystyrene microtiter plates (Maxisorb, Nunc, Denmark) were coated with peptides or enzymatically glycosylated glycopeptides in PBS overnight at 4° C. Plates were washed and blocked with 0.1% Tween20 and 0.2% BSA in PBS for 1 h at room temperature, followed by incubation with biotinylated proteins in PBS with 0.05% Tween20 for 2 h at room temperature. After four washes with PBS, plates were incubated with 1:2,000 dilution streptavidin-HRP (Sigma) in PBS for 30 min at room temperature and washed four times with PBS. Development was performed with 0.5 mg/ml o-phenylenediamine and 0.02% H2O2 at room temperature for 15 min, and reaction stopped by adding 100 μl/well of 0.5 N H2SO4. Competitive inhibition assays were done at end-point titers of GalNAc-transferase proteins with one hour preincubations with inhibitor.
In binding studies using lectins without biotinylation antibodies to the HIS-tag and the T7-tag, or in some experiments antibodies raised to GalNAc-T2 and -T4 enzymes were used to detect binding.
(§2) Inhibition experiments were used to further define the binding specificity of GalNAc-T2 and -T4 secreted soluble enzymes as well as lectin domains compared to Helix Pomatia lectin (Table IV).

[1] = molecular target: T2, secreted soluble GalNAc-T2 (Homo sapiens, UniProt Q10471); test: Inhibition of secreted soluble GalNAc-T2 (sT2) binding to GalNAc-MUC1 glycopeptide, ELISA
T2 construct: 6xHis (N); thrombin cleavage site (N); T7 antibody site (N); made in house; host or cells: baculovirus (pAcGP67A), High Five insect cells
Procedure: as §1, §2

[2] = system: MUC1 in CHO1d1D/MUC1F-clone2 cells; test: Cell surface expression of MUC1 by immunocytology of non-permeabilized cells (FIG. 11); type: cell-based, Chinese Hamster; conditions: 1 mM, cells grown in GalNAc
Procedure: Immunocytology: Two different procedures were applied: i) For general screening purposes, cells grown in plates or flasks were trypsinized, washed in saline, and airdried on multiwell coverslides. Slides were fixed in ice-cold acetone and stained with monoclonal antibodies and FITC-conjugated rabbit anti-mouse Ig as previously described^50. ii) For analysis of cell surface expression, cells were seeded in 6 well plates and grown for 6 hours in Hams F12 medium with serum until approximately 30-50% subconfluent. […] Cells were washed once in PBS (phosphate buffered saline without Calcium and Magnesium) and subsequently fixed in 2 ml 3% paraformaldehyde at 25° C. for 20 min followed by three washes with PBS. Free aldehyde groups were quenched by incubating in 2 mL 50 mM Ammonium Chloride in PBS for 10 min, followed by three washes with PBS and three washes with 5 min incubations each with PBS containing 0.2% Fish Skin Gelatin (Sigma). Immunostaining of cells was performed by incubation with monoclonal antibodies for 40 min at 25° C., followed by three washes with PBS and three washes of 5 min each with PBS containing 0.2% Fish Skin Gelatin. […]
We therefore investigated the effect of treatment with GalNAcα-benzyl of CHO1d1D/MUC1F-clone2 cells grown in the presence of GalNAc. […] Initially we analyzed surface expression of MUC1 by immunocytology. […]

GalNAc-T4 = GalNAc-T4 (Homo sapiens, UniProt Q8N4A0); conditions: mM concentrations; cited from earlier work
HT-29 MTX cells = test: Viscosity of media from HT-29 MTX cells; type: cell-based, human; conditions: 5 mM; data not shown
Source text: In order to evaluate GalNAcβ-benzyl as an inhibitor of mucin glycosylation and secretion we used the cultured colon carcinoma cells of mucin secreting phenotypes: HT-29 metotrexate (MTX) cells selected from the HT-29 cell line by culture in the presence of MTX (kind gift from G. Huet, France). The HT-29 MTX cells were selected to yield a goblet cell like phenotype with constitutive production of MUC5AC. In order to ensure proper goblet cell differentiation the HT29MTX cell line were continuously grown up to 21 days in the presence of 5 mM GalNAcα-benzyl, 5 mM GalNAcβ-benzyl, 5 mM GlcNAcα-benzyl and without inhibitor using culture conditions as described in Hennebicq-Reig et al. (Permanent exposure of mucin-secreting HT-29 cells to benzyl-N-acetyl-alpha-D-galactosaminide induces abnormal O-glycosylation of mucins and inhibits constitutive and stimulated MUC5AC secretion. Biochem J. 1998; 334:283-95). […] Furthermore the viscosity of the media from cells with and without inhibitor was evaluated using viscosity micro-measurement.

T2 sequence (Q10471 52-571 limits assumed): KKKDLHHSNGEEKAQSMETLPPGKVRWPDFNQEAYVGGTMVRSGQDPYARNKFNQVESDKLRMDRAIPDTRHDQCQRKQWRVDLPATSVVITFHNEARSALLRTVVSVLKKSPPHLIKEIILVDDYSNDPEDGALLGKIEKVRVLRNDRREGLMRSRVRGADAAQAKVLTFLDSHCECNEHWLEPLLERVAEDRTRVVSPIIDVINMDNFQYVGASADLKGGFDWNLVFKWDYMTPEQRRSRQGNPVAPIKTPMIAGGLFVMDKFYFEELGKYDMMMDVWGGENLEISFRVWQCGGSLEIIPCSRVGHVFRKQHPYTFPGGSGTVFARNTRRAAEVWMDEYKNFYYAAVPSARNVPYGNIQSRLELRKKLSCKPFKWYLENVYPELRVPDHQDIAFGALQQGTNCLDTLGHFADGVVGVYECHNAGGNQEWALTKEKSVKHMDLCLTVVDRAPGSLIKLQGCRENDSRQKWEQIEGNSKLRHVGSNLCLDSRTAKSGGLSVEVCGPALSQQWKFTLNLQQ
Sequence of GalNAc-T4 (Q8N4A0 whole entry): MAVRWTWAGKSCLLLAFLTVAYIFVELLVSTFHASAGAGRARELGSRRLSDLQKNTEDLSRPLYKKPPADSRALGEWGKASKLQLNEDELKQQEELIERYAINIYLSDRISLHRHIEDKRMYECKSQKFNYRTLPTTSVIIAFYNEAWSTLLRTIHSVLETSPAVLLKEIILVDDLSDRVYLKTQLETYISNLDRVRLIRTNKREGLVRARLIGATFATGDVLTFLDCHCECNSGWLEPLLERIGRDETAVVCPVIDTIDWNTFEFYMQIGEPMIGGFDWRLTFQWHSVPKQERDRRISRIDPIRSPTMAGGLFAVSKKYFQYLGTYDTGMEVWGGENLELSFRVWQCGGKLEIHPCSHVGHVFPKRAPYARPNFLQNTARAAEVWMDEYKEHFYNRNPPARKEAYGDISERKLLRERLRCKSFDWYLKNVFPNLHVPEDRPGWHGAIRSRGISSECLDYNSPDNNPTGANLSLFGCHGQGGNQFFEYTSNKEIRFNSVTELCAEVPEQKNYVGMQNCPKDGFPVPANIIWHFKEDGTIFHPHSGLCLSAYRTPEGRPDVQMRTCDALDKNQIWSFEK

Compound	IC50 (GalNAc-T2 lectin domain)	IC50 [1]	cell surface expression of MUC1 [2]	inhibition of lectin mediated GalNAc-glycopeptide substrate specificity of GalNAc-T4 (GalNAc-T4)	viscosity of media (HT-29 MTX cells)
CC(=O)N[C@H]1[C@@H](OCc2ccccc2)O[C@H](CO)[C@H](O)[C@@H]1O [BzlαGalNAc, benzyl-N-acetyl-alpha-D-galactosaminide]	20 mM	15 mM	strong inhibition	can inhibit	
CC(=O)N[C@H]1[C@H](OCc2ccccc2)O[C@H](CO)[C@H](O)[C@@H]1O [GalNAcβ-benzyl]					less viscous
